Read-outs that look alike come from different tables or passages of the source.
Columns and labels:
CDK2/cyclin A2 = target: T1, CDK2/cyclin A2 (Homo sapiens, UniProt P24941); assay: Human CDK2/cyclin A2 inhibitory activity (QS S Assist CDK2/Cyclin A2_FP Kit, IMAP fluorescence polarization); format: biochemical
T1 construct: purchased Carna Biosciences, Inc. QS S Assist CDK2/Cyclin A2_FP Kit
How it was run: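 Kinase activity read as fluorescence polarization (485/535 nm) after phosphorylated fluorescent substrate binds IMAP reagent (30 min, RT, dark). Enzyme (2.5 ng/well) reacted 60 min at RT with ATP/substrate/metal in HEPES pH 7.4 buffer with Tween 20 and DTT; no-enzyme wells define 0% activity; IC50 by curve fit.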

CDK4/cyclin D3 = target: T2, CDK4/cyclin D3 (Homo sapiens, UniProt P11802); assay: Human CDK4/cyclin D3 inhibitory activity (QS S Assist CDK4/Cyclin D3_FP Kit, IMAP fluorescence polarization); format: biochemical
T2 construct: purchased Carna Biosciences, Inc. QS S Assist CDK4/Cyclin D3_FP Kit
T2 sequence (P11802 whole entry): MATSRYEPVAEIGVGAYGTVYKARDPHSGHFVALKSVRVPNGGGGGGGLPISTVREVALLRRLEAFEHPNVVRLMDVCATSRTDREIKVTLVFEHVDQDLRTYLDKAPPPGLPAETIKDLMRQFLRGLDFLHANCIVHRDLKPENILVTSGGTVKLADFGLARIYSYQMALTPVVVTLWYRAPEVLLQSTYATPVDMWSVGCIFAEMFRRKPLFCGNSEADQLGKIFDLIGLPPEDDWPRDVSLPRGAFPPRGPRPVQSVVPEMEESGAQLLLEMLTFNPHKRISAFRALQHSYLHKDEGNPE
T2 sequence (P30281 whole entry partner): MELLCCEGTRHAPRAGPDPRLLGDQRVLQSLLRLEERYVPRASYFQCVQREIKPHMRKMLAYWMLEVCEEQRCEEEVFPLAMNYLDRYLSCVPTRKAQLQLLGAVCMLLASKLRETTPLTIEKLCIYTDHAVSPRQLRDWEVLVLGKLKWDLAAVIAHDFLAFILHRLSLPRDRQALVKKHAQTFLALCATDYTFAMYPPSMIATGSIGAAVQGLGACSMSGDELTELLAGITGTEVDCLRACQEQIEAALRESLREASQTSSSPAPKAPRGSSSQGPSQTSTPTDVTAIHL
How it was run: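 Percent inhibition, relative to DMSO with and without enzyme, was curve-fitted to give IC50 from polarization (ex 485, em 535 nm). The 45-min room-temperature reaction used 12.5-25 ng/well enzyme, kit ATP/substrate/metal mix, and HEPES pH 7.4 buffer with Tween20 and DTT, followed by 30-min IMAP binding in the dark.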

[1] = 50% inhibitory concentration against CDK2/cyclin A2, given as class symbol
[2] = 50% inhibitory concentration against CDK4/cyclin D3, given as class symbol
[3] = Human CDK2/cyclin A2 inhibitory activity, read-out: CDK2 Activity symbol
[4] = Human CDK4/cyclin D3 inhibitory activity, read-out: CDK4 Activity symbol

Row | SMILES | IC50 (CDK2/cyclin A2; [1]) | IC50 (CDK4/cyclin D3; [2]) | IC50 (CDK2/cyclin A2; [3]) | IC50 (CDK4/cyclin D3; [4])
1 | CC(C)Nc1nc([C@@H](C)O)cc2cnc(Nc3ccc4c(n3)CCN(C(=O)C3CCNCC3)C4)nc12 [Compound 932] | ≥ 0.1 µM | < 0.01 µM |  | 
2 | CO[C@H](C)c1cc2cnc(Nc3ccc(CN4CCCOCC4)cn3)nc2c(NC(C)C)n1 [Compound 273] |  |  | ≥ 0.1 µM | < 0.01 µM
3 | CC(C)Nc1nc(C(F)F)cc2cnc(Nc3ccc(CN(C[C@@H]4CCCO4)S(C)(=O)=O)cn3)nc12 [Compound 149] |  |  | ≥ 0.1 µM | 0.01 to 0.1 µM
4 | COCC(C)(C)Nc1nc([C@@H](C)O)cc2cnc(Nc3ccc(N4CCOCC4)cn3)nc12 [Compound 204] |  |  | ≥ 0.1 µM | < 0.01 µM
5 | CC(C)Nc1nc([C@@H](C)O)cc2cnc(Nc3ccc(N4CCC(CO)C4)nn3)nc12 (some centres unmarked) [Compound 663] | ≥ 0.1 µM | < 0.01 µM |  | 
6 | CC(C)Nc1nc(C(C)O)cc2cnc(Nc3ccc(N4CCC(N)C(F)C4)nn3)nc12 (centres unmarked) [Compound 618] |  |  | ≥ 0.1 µM | < 0.01 µM
7 | CCCNc1nc([C@@H](C)OC)cc2cnc(Nc3ccc(N4CC5(CC(NC)C5)C4)cn3)nc12 [Compound 1008] | ≥ 0.1 µM | < 0.01 µM |  | 
8 | COCC(C)(C)Nc1nc([C@@H](C)O)cc2cnc(Nc3ccc(CN4CCNC(=O)C4)cn3)nc12 [Compound 182] |  |  | ≥ 0.1 µM | 0.01 to 0.1 µM
9 | CC(C)Nc1nc(C(F)F)cc2cnc(Nc3ccc(CN4CCCNC4=O)cn3)nc12 [Compound 219] |  |  | 0.01 to 0.1 µM | < 0.01 µM
10 | COCC(C)(C)Nc1nc([C@@H](C)O)cc2cnc(Nc3ccc(CN4CCn5ccnc5C4)cn3)nc12 [Compound 295] |  |  | ≥ 0.1 µM | 0.01 to 0.1 µM
11 | CCNc1nc(C(C)O)cc2cnc(Nc3ccc(N4CCNCC4)cn3)nc12 (centres unmarked) [Compound 23] |  |  | ≥ 0.1 µM | < 0.01 µM
12 | CC(C)Nc1nc([C@@H](C)O)cc2cnc(Nc3ccc(N4CCNC5(CC5)C4)nn3)nc12 [Compound 379] |  |  | ≥ 0.1 µM | < 0.01 µM
13 | CC(O)CN1CCN(Cc2ccc(Nc3ncc4cc([C@@H](C)O)nc(NC(C)C)c4n3)nc2)CC1 (some centres unmarked) [Compound 638] | ≥ 0.1 µM | < 0.01 µM |  | 
14 | CC(C)Nc1nc([C@@H](C)O)cc2cnc(Nc3ccc(N4CCCCC(N)C4=O)cn3)nc12 (some centres unmarked) [Compound 554] |  |  | ≥ 0.1 µM | < 0.01 µM
15 | CCCNc1nc([C@@H](C)O)cc2cnc(Nc3ccc(CN4CCN(C)CC4)cn3)nc12 [Compound 1104] | ≥ 0.1 µM | < 0.01 µM |  | 
16 | CCCCNc1nc([C@@H](C)OC)cc2cnc(Nc3ccc(CN4CCN(CCO)CC4)cn3)nc12 [Compound 853] | ≥ 0.1 µM | < 0.01 µM |  | 
17 | CC(C)Nc1nc(C(F)F)cc2cnc(Nc3ccc(CCCN4CCCCS4(=O)=O)cn3)nc12 [Compound 170] |  |  | ≥ 0.1 µM | < 0.01 µM
18 | CC(C)Nc1nc(C(F)F)cc2cnc(Nc3ccc(N4CCN(C)CC4=O)cn3)nc12 [Compound 80] |  |  | 0.01 to 0.1 µM | < 0.01 µM
19 | CO[C@H](C)c1cc2cnc(Nc3ccc(N4CCNC5(CC5)C4)nn3)nc2c(N[C@H]2CCCOC2)n1 [Compound 376] |  |  | ≥ 0.1 µM | < 0.01 µM
20 | CC(=O)c1cc2cnc(Nc3ccc4c(n3)CCNC4)nc2c(NC(C)C)n1 [Compound 1027] | ≥ 0.1 µM | < 0.01 µM |  | 

Row | SMILES | IC50 (CDK2/cyclin A2; [1]) | IC50 (CDK4/cyclin D3; [2]) | IC50 (CDK2/cyclin A2; [3]) | IC50 (CDK4/cyclin D3; [4])
21 | CO[C@H](C)c1cc2cnc(Nc3ccc4c(n3)CCN(C(=O)CO)C4)nc2c(N[C@H]2CC[C@H](O)CC2)n1 [Compound 1144] | ≥ 0.1 µM | < 0.01 µM |  | 
22 | CC(C)Nc1nc([C@@H](C)O)cc2cnc(Nc3ccc(N4CCN(C(=O)CO)CC4)nn3)nc12 [Compound 659] | ≥ 0.1 µM | < 0.01 µM |  | 
23 | CC(O)c1cc2cnc(Nc3ccc(N4CCNCC4)cn3)nc2c(NC(C)c2cn[nH]c2)n1 (centres unmarked) [Compound 106] |  |  | ≥ 0.1 µM | < 0.01 µM
24 | CCCCNc1nc([C@@H](C)O)cc2cnc(Nc3ccc(CN4CCN(CCO)CC4)cn3)nc12 [Compound 845] | ≥ 0.1 µM | < 0.01 µM |  | 
25 | CC(C)Nc1nc(C(C)O)cc2cnc(Nc3ccc(N4CCC(O)C5(CC5)C4)nn3)nc12 (single isomer, unassigned) [Compound 725] | ≥ 0.1 µM | < 0.01 µM |  | 
26 | CCCCNc1nc([C@@H](C)O)cc2cnc(Nc3ccc(CN4CCC[C@H](O)C4)cn3)nc12 [Compound 1188] | ≥ 0.1 µM | < 0.01 µM |  | 
27 | CC(C)Nc1nc([C@@H](C)O)cc2cnc(Nc3ccc(NC(=O)C4CCCCN4)cn3)nc12 (some centres unmarked) [Compound 788] | ≥ 0.1 µM | < 0.01 µM |  | 
28 | CC(C)Nc1nc([C@@H](C)O)cc2cnc(Nc3ccc(N4CCNC(C(F)(F)F)C4)cn3)nc12 (some centres unmarked) [Compound 777] | ≥ 0.1 µM | < 0.01 µM |  | 
29 | CC(C)N(C)c1nc(C(F)F)cc2cnc(Nc3ccc(N4CCNCC4)cn3)nc12 [Compound 14] |  |  | ≥ 0.1 µM | < 0.01 µM
30 | CC(O)c1cc2cnc(Nc3ccc(N4CCNCC4)cn3)nc2c(NC2CCCC2)n1 (centres unmarked) [Compound 8] |  |  | ≥ 0.1 µM | < 0.01 µM
31 | CC(C)Nc1nc([C@@H](C)O)cc2cnc(Nc3ccc(CC4CCN(CCO)CC4)cn3)nc12 [Compound 951] | ≥ 0.1 µM | < 0.01 µM |  | 
32 | FC(F)c1cc2cnc(Nc3ccc(N4CCNCC4)nn3)nc2c(NC2CCOCC2)n1 [Compound 365] |  |  | ≥ 0.1 µM | < 0.01 µM
33 | CC(C)Nc1nc(C2CCCO2)cc2cnc(Nc3ccc(N4CCNCC4)cn3)nc12 (centres unmarked) [Compound 992] | ≥ 0.1 µM | 0.01 to 0.1 µM |  | 
34 | CC(O)c1cc2cnc(Nc3ccc(N4CCNCC4=O)cn3)nc2c(NC2CCCOC2)n1 (centres unmarked) [Compound 346] |  |  | ≥ 0.1 µM | < 0.01 µM
35 | CC(C)Nc1nc([C@@H](C)O)cc2cnc(Nc3ccc(N4CC5(CCNCC5)C4)nn3)nc12 [Compound 575] |  |  | ≥ 0.1 µM | < 0.01 µM
36 | CC(C)Nc1nc([C@@H](C)O)cc2cnc(Nc3ccc(N4CCC5(CC4)CNC(=O)C5)nn3)nc12 [Compound 648] | ≥ 0.1 µM | < 0.01 µM |  | 
37 | COCC(C)(C)Nc1nc([C@@H](C)O)cc2cnc(Nc3ccc(C4CCN(C(C)=O)CC4)cn3)nc12 [Compound 225] |  |  | ≥ 0.1 µM | < 0.01 µM
38 | CCNc1nc([C@@H](C)O)c(Cl)c2cnc(Nc3ccc(CN4CCN(CCO)CC4)cn3)nc12 [Compound 984] | ≥ 0.1 µM | < 0.01 µM |  | 
39 | CCCNc1nc([C@@H](C)O)cc2cnc(Nc3ccc(N4CCC(N(C)C)CC4)nn3)nc12 [Compound 1159] | ≥ 0.1 µM | < 0.01 µM |  | 
40 | C[C@@H](O)c1cc2cnc(Nc3ccc(N4CCNCC4=O)cn3)nc2c(N[C@@H]2CCOC2)n1 [Compound 348] |  |  | ≥ 0.1 µM | < 0.01 µM

Row | SMILES | IC50 (CDK2/cyclin A2; [1]) | IC50 (CDK4/cyclin D3; [2]) | IC50 (CDK2/cyclin A2; [3]) | IC50 (CDK4/cyclin D3; [4])
41 | CCCNc1nc([C@@H](C)O)cc2cnc(Nc3ccc(CN4CCN(C(C)CO)CC4)cn3)nc12 (single isomer, unassigned) [Compound 1206] | ≥ 0.1 µM | < 0.01 µM |  | 
42 | CCCNc1nc(C(C)=O)cc2cnc(Nc3ccc(N4CCNCC4)cn3)nc12 [Compound 1028] | ≥ 0.1 µM | 0.01 to 0.1 µM |  | 
43 | CC(C)Nc1nc([C@@H](C)O)cc2cnc(Nc3ccc(N4CCN(C(C)(C)C)CC4)nn3)nc12 [Compound 604] |  |  | ≥ 0.1 µM | < 0.01 µM
44 | CC(C)Nc1nc(C(F)F)cc2cnc(Nc3ccc(-n4cccn4)cn3)nc12 [Compound 210] |  |  | ≥ 0.1 µM | 0.01 to 0.1 µM
45 | CCCN1CCN(Cc2ccc(Nc3ncc4cc([C@@H](C)OC)nc(NC(C)C)c4n3)nc2)CC1 [Compound 239] |  |  | ≥ 0.1 µM | < 0.01 µM
46 | CO[C@H](C)c1cc2cnc(Nc3ccc(CN4CCOCC4(C)C)cn3)nc2c(NC(C)C)n1 [Compound 279] |  |  | ≥ 0.1 µM | 0.01 to 0.1 µM
47 | COCC(C)(C)Nc1nc([C@@H](C)O)cc2cnc(Nc3ccc(OCCN(C)C)cn3)nc12 [Compound 208] |  |  | ≥ 0.1 µM | < 0.01 µM
48 | CC(C)Nc1nc([C@@H](C)O)cc2cnc(Nc3ccc(OCCN4CCNCC4=O)cn3)nc12 [Compound 550] |  |  | ≥ 0.1 µM | < 0.01 µM
49 | CNc1nc(C(C)O)cc2cnc(Nc3ccc(N4CCNCC4)cn3)nc12 (centres unmarked) [Compound 22] |  |  | ≥ 0.1 µM | 0.01 to 0.1 µM
50 | CCNc1nc([C@@H](C)O)cc2cnc(Nc3ccc(CN4CC5CCC(C4)N5C)cn3)nc12 [Compound 1222] | ≥ 0.1 µM | < 0.01 µM |  | 
51 | CC(C)N(C)c1nc([C@@H](C)O)cc2cnc(Nc3ccc(N4CCNCC4=O)cn3)nc12 [Compound 871] | ≥ 0.1 µM | 0.01 to 0.1 µM |  | 
52 | C[C@@H](O)c1cc2cnc(Nc3ccc(CN4CCN(CCO)CC4)cn3)nc2c(NCCCF)n1 [Compound 1074] | ≥ 0.1 µM | < 0.01 µM |  | 
53 | C[C@@H](O)c1nc(N[C@H]2CCCOC2)c2nc(Nc3ccc(N4CCNCC4)nn3)ncc2c1Cl [Compound 367] |  |  | ≥ 0.1 µM | < 0.01 µM
54 | C[C@@H](O)c1cc2cnc(Nc3ccc(CN4CCNCC4)cn3)nc2c(N[C@@H]2CCOC2)n1 [Compound 259] |  |  | ≥ 0.1 µM | < 0.01 µM
55 | CC(C)Nc1nc(C(F)F)cc2cnc(Nc3ccc(OCCN(C)C)cn3)nc12 [Compound 81] |  |  | 0.01 to 0.1 µM | < 0.01 µM
56 | CC(C)Nc1nc(C(=O)N(C)C)cc2cnc(Nc3ccc(N4CCNCC4)cn3)nc12 [Compound 34] |  |  | ≥ 0.1 µM | 0.01 to 0.1 µM
57 | CC(C)Nc1nc([C@@H](C)O)cc2cnc(Nc3ccc(N4CCN(C(=O)C5CCCO5)CC4)nn3)nc12 (some centres unmarked) [Compound 1183] | ≥ 0.1 µM | < 0.01 µM |  | 
58 | CC(C)Nc1nc([C@@H](C)O)cc2cnc(Nc3ccc(O[C@@H]4CCN(CCO)C4)cn3)nc12 [Compound 1058] | ≥ 0.1 µM | < 0.01 µM |  | 

Reference: patent publication US10124004B2, “Pyrido[3,4-d]pyrimidine derivative and pharmaceutically acceptable salt thereof” (Teijin Pharma Limited, priority 2015, dated 2018)
